Legend:
[1] = Multiple rising dose study: PK of soticlestat and M-I (day 1, day 14), oral solution; assay type: in vivo, human; details: for AUC24 mean / AUC∞, mean / Cmax, mean / Tmax, median: soticlestat plasma; for CLR, mean: soticlestat urine
Excerpt: The second trial was a phase I, randomized, double-blind, placebo-controlled study, with soticlestat administered by oral solution at multiple escalating doses in healthy subjects. The criteria for subject inclusion and exclusion are similar to those of the first trial described above but with the added screening of female subjects for pregnancy. […] After a cohort finished their dosage regimen, a decision was made whether to escalate the dosage for the next cohort. Cohorts 1, 2, and 3 received 100, 300, and 400 mg once daily (QD), respectively, and cohorts 4 and 5 received 300 mg twice daily (BID) or 600 mg QD. The regimen for cohorts 4 and 5 were discontinued after subjects began experiencing adverse neurological and psychiatric events. Example 6 describes the PK protocol and the results.
The blood sampling protocol included obtaining a 4-ml blood sample for PK analysis 30 minutes pre-dose, and at 10, 15, 20, and 30 minutes and 1, 1.5, 2, 3, 4, 6, 8, 10, 12, 16, and 24 hours post-dose on days 1 and 14. Cohort 3, receiving 400 mg QD, had additional blood samples taken on day 7 at 15 and 30 minutes, and 1, 2, 4, and 8 hours post-dose. […] The median time for Cmax (Tmax) across the dose range varied between 0.33-0.5 hours. […] The 24 hour plasma area under the concentration-time curve (AUC24) for doses 100, 300, and 400 mg at day 14 were 458, 2690, and 2800 ng×h/mL, respectively. The concentration time profiles were similar from day 1 through day 14.
This study administered soticlestat to healthy male and female adults in an oral solution at escalating daily dose levels. […] Eight subjects were randomly assigned to one of five cohorts, with two subjects in each cohort receiving a placebo. Single daily dosing occurred in the morning after a minimum fast of 8 hours and subjects continued fasting until 2 hours post-dose. […] After a full review of the safety data from cohorts 1 and 2, including vitals, physical examination, BMI, adverse events, and clinical laboratory tests, […] were approved to receive increased dosages of 300 mg twice daily (BID) and 600 mg once daily (QD), respectively.
All cohorts had additional blood samples taken 30 minutes pre-dose on days 7, 11, 12, and 13. […] had additional blood samples taken for PK data on day 7 at post-dose times 15 and 30 minutes, and 1, 2, 4, and 8 hours. The PK parameter analysis was performed as described in example 2. […] A power model estimated the dose proportionality for Cmax and AUC∞ on day 1 and day 14 for cohorts receiving once daily dosing. An analysis of variance (ANOVA) assessed the variation in time dependency for Cmax and AUC∞ on day 1 and day 14 for cohorts receiving once daily dosing.
Pre-dose urine samples were collected for PK analysis for 12 hours pre-dose of day 1 and for 2 hours pre-dose of day 14. Post-dose urine samples were collected at intervals of 0-6, 6-12, and 12-24 hours.

plasma 24HC = test: Healthy Japanese subjects, Part 2: plasma 24HC pharmacodynamics; assay type: in vivo, human
Method: TAK-935 or placebo was administered to the 9 subjects at the dose of 100 mg BID from Day 1 to Day 7, then 200 mg BID from Day 8 to Day 14, and finally 300 mg BID from Day 15 to Day 21, and safety, PK and PD were investigated. The planned dose levels of TAK-935 to be evaluated are outlined in Table 40a.
Blood samples for PD analysis of plasma 24HC level were collected into blood collection tubes (vacutainer) containing the anticoagulant K2EDTA.
The PD assessments described below were performed at the time points stipulated in the schedule of procedures. The additional PD endpoints included the following PD parameters for plasma 24HC: […]

[2] = Day 21 after 100 mg BID, 200 mg BID, and 300 mg BID, mean
[3] = multiple doses 100 mg BID, 200 mg BID, and 300 mg BID (Day 21), mean

## O=C(c1cccnc1-c1ccncc1)N1CCC(O)(Cc2ccccc2)CC1 [soticlestat]
[1]; both, human, in vivo, 300 mg
  accumulated exposure, AUC24 day 14: ~1.42 fold
[1]; both, human, in vivo, 300 mg, 14 days
  accumulated exposure, Cmax day 14: approximately 1.74 fold
[1]; both, human, in vivo, 600 mg
  t½z, mean: 290 min
[1]; human, in vivo, 600 mg
  CL/F, mean: 194 L/h
[1]; 100 mg QD day 1
  AUC24 mean: 446 ng·h/mL
  AUC∞, mean: 451 ng·h/mL
  Cmax, mean: 468 ng/mL
  Tmax, median: 25.2 min
  CLR, mean: 0.220 L/h
[1]; 100 mg QD day 14
  AUC24 mean: 458 ng·h/mL
  AUC∞, mean: 509 ng·h/mL
  Cmax, mean: 481 ng/mL
  Tmax, median: 25.2 min
  CLR, mean: 0.200 L/h
[1]; 300 mg BID day 1 (first dose)
  AUC24 mean: 1460 ng·h/mL
  AUC∞, mean: 1510 ng·h/mL
  Cmax, mean: 1330 ng/mL
  Tmax, median: 26.4 min
[1]; 300 mg QD day 1
  AUC24 mean: 2030 ng·h/mL
  AUC∞, mean: 2040 ng·h/mL
  Cmax, mean: 2020 ng/mL
  Tmax, median: 25.2 min
  CLR, mean: 0.300 L/h
[1]; 300 mg QD day 14
  AUC24 mean: 2690 ng·h/mL
  AUC∞, mean: 2840 ng·h/mL
  Cmax, mean: 3100 ng/mL
  Tmax, median: 19.8 min
  CLR, mean: 0.220 L/h
[1]; 400 mg QD day 1
  AUC24 mean: 2500 ng·h/mL
  AUC∞, mean: 2520 ng·h/mL
  Cmax, mean: 2630 ng/mL
  Tmax, median: 19.8 min
  CLR, mean: 0.370 L/h
[1]; 400 mg QD day 14
  AUC24 mean: 2800 ng·h/mL
  AUC∞, mean: 3090 ng·h/mL
  Cmax, mean: 2930 ng/mL
  Tmax, median: 19.8 min
  CLR, mean: 0.380 L/h
[1]; 600 mg QD day 1
  AUC24 mean: 4180 ng·h/mL
  AUC∞, mean: 4220 ng·h/mL
  Cmax, mean: 3060 ng/mL
  Tmax, median: 30 min
  CLR, mean: 0.340 L/h
[1]; 300 mg BID day 1
  CLR, mean: 0.350 L/h
Plasma 24HC; Day 21, up-titration to 300 mg BID
  maximum mean decrease of trough plasma 24HC from time-matched baseline: about 88%
Plasma 24HC; [2]
  AUEC24 of plasma 24HC: 124.2 ng·h/mL
  AVECτ of plasma 24HC (AUEC during a dosing interval): 61.28 ng·h/mL
  E12 of plasma 24HC (observed effect at 12 hours): 5.443 ng/mL
  E24 of plasma 24HC (observed effect at 24 hours): 5.013 ng/mL
  Emax of plasma 24HC: 4.640 ng/mL
Plasma 24HC; Day 21 after 100 mg BID, 200 mg BID, and 300 mg BID, median
  Time to Emax of plasma 24HC: 6.000 h
Plasma 24HC; Homo sapiens, 504 h, multiple doses 100 mg BID, 200 mg BID, and 300 mg BID (Day 21), mean, read-out: % change from Baseline in Emax of plasma 24HC
  Emax: -86.7%
Plasma 24HC; [3]
  % change from Baseline in AUEC24 of plasma 24HC: −86.75%
  % change from Baseline in AUECτ of plasma 24HC: −86.62%
  % change from Baseline in E12 of plasma 24HC: −85.83%
  % change from Baseline in E24 of plasma 24HC: −87.67%

Reference: patent publication US20250213547A1, “METHODS OF TREATING NEUROLOGICAL DISEASES” (priority 2022, published 2025)
